Blank lines part the entries; values can stand above or below the compound they belong to.
What was measured:
[1] = mass balance study with [14C]vibegron in healthy subjects; conditions: human plasma at 2 and 4 hr
[2] = test system: patients with overactive bladder
From the text: A placebo group was included in the main study, and a group that received tolterodine monotherapy was included in the main study and in the extension.

patients with OAB = experiment: Phase 2b vital sign changes (HR, SBP, DBP); type: in vivo, human; conditions: Tolterodine 4 mg
From the text: None led to discontinuation. The overall incidence of orthostatic symptoms was low.
Small differences in the percent of subjects exceeding categorical heart rate and blood pressure thresholds for vibegron were similar to those in the tolterodine arm.

men and women with OAB = experiment: Phase 2b study in OAB, efficacy (voiding diary); type: in vivo, human; conditions: tolterodine ER 4 mg once daily
From the text: Part 2 was designed to continue to assess the safety and efficacy of concomitant dosing. […] Subjects in both Part 1 and Part 2 had the option of enrolling in a 1-year extension. Participants were required to keep a voiding diary, recording the occurrence of each strong urge, total incontinence, and urge incontinence episode. Efficacy data for Part 1 and Part 2 are summarized herein.
The total number of urgency incontinence episodes must have exceeded the total number of stress incontinence episodes for all subjects.

[3] = test system: patients with overactive bladder; experiment: Phase 2b 52-week extension safety; type: in vivo, human; conditions: tolterodine ER 4 mg
From the text: There were no deaths reported during the study.

healthy subjects = experiment: thorough QT single oral dose study; type: in vivo, human; conditions: single dose of moxifloxacin 400 mg
[4] = Tolterodine ER 4 mg, N = 257, first 12 weeks

share of total circulating drug-related material [1]: 12-14%
SMILES: O=C(O)C1OC(OC(c2ccccc2)C2CCC(Cc3ccc(NC(=O)C4CCc5nccc(=O)n54)cc3)N2)C(O)C(O)C1O (stereo not drawn) [M7]

SMILES: Cc1ccc(O)c([C@H](CCN(C(C)C)C(C)C)c2ccccc2)c1 [Tolterodine ER, tolterodine]
frequency of injuries ([2]; Phase 2 program): 2.1%
Accidental overdose, % [2, 4]: (2.3) %
Alanine aminotransferase increased, % [2, 4]: (0.4) %
Arthralgia, % [2, 4]: (1.2) %
Aspartate aminotransferase increased, % [2, 4]: (0.0) %
Constipation, % [2, 4]: (1.9) %
Diarrhea, % [2, 4]: (3.5) %
Discontinuation due to AE, % [2, 4]: (1.6) %
Dizziness, % [2, 4]: (1.9) %
Drug-related AE, % [2, 4]: (16.3) %
Dry eye, % [2, 4]: (3.9) %
Dry mouth, % [2, 4]: (8.6) %
Dysuria, % [2, 4]: (1.2) %
Fatigue, % [2, 4]: (2.3) %
Headache, % [2, 4]: (3.5) %
Nasopharyngitis, % [2, 4]: (1.6) %
Nausea, % [2, 4]: (2.3) %
Osteoarthritis, % [2, 4]: (0.0) %
Pain in extremity, % [2, 4]: (0.4) %
Serious AE, % [2, 4]: (1.2) %
Sinusitis, % [2, 4]: (0.4) %
Urinary tract infection, % [2, 4]: (4.7) %
≥1 AE, % [2, 4]: (45.1) %
incidence of dry mouth compared to placebo or vibegron monotherapy groups ([2]; groups that received tolterodine (alone or with vibegron), main study): higher
SAEs reported ([2]; tolterodine 4 mg, main study): 3
DBP change from baseline, mean (95% CI) Max, week 1 to 8 (patients with OAB): 5.19 (4.26, 6.13) mm Hg
DBP change from baseline, mean (95% CI), week 1 (patients with OAB): −0.12 (−1.10, 0.86) mm Hg
HR change from baseline, mean (95% CI) maximum, week 1 to 8 (patients with OAB): 5.66 (4.69, 6.63) bpm
HR change from baseline, mean (95% CI), week 1 (patients with OAB): 0.68 (−0.31, 1.67) bpm
SBP change from baseline, mean (95% CI) maximum, week 1 to 8 (patients with OAB): 7.29 (6.01, 8.57) mm Hg
SBP change from baseline, mean (95% CI), week 1 (patients with OAB): 0.04 (−1.36, 1.43) mm Hg
Total Incontinence Episodes, change from baseline Week 8, mean (men and women with OAB; OAB Wet subjects): −1.80
Total Incontinence Episodes, daily number, Week 8 mean (men and women with OAB; OAB Wet subjects): 1.32
Total Incontinence Episodes, difference from placebo Week 8, LS means (men and women with OAB; OAB Wet subjects): −0.34
Urgency Incontinence Episodes, change from baseline Week 8, mean (men and women with OAB; OAB Wet subjects): −1.67
Urgency Incontinence Episodes, daily number, Week 8 mean (men and women with OAB; OAB Wet subjects): 1.15
Urgency Incontinence Episodes, difference from placebo Week 8, LS means (men and women with OAB; OAB Wet subjects): −0.46
Micturitions, change from baseline Week 8, mean (men and women with OAB; Part 1): −1.73
Micturitions, daily number, Week 8 mean (men and women with OAB; Part 1): 9.24
Micturitions, difference from placebo Week 8, LS means (men and women with OAB; Part 1): −0.54
Urgency Episodes, change from baseline Week 8, mean (men and women with OAB; Part 1): −2.52
Urgency Episodes, daily number, Week 8 mean (men and women with OAB; Part 1): 3.91
Urgency Episodes, difference from placebo Week 8, LS means (men and women with OAB; Part 1): −0.94
change from baseline in volume voided per micturition, difference from placebo in LS means (men and women with OAB; Week 8): 30.77 mL
drug-related SAE [3]: one drug-related SAE of ileus paralytic
incidence of dry mouth compared to the other treatment groups [3]: higher

SMILES: COc1c(N2C[C@@H]3CCCN[C@@H]3C2)c(F)cc2c(=O)c(C(=O)O)cn(C3CC3)c12 [moxifloxacin, reference compound]
effect on QTcF (healthy subjects): statistically significant effect
